Experimental data taken from patent US5466677A, “Dinucleoside phosphinates and their pharmaceutical compositions” (Ciba-Geigy Corporation, priority 1993, dated 1995).

How the values were obtained:
[1] = test system: human cytomegalovirus (HCMV) (strain AD 169); experiment: plaque-reduction assay, HCMV in human embryonic fibroblasts; assay type: cell-based; conditions: Human betaherpesvirus 5, Fibroblast; HCMV strain AD 169, human embryonic fibroblasts, 7 to 10 days
Method: (§1) Compounds prepared in some of the previous Examples are tested for antiviral activity against herpes simplex virus type 1 (HSV-1) (strain 17i) and human cytomegalovirus (HCMV) (strain AD 169) in vitro. Aqueous solutions of the compounds are prepared at concentrations between 10 mM and 50 mM. The solutions are stored at -70° C. after preparation and thawed prior to use in the antiviral assays. After thawing, the solutions are diluted to the appropriate concentration in the cell-culturemedium without prior filtration.
(§2) In a procedure similar to that described by Tyros et al, J. Antimicrob. Chemother., 8, 65-72 (1981), cell monolayers are infected with 20-200 plaque forming units and after virus adsorption the inoculum is replaced by maintenance medium containing different concentrations of the compound under investigation. Virus spread is prevented by the incorporation of 0.5% low gelling temperature agarose. At the end of a set period (2 or 3 days for HSV and 7 to 10 days for HCMV) monolayers are fixed, stained with methylene blue and plaque numbers determined.

[2] = test system: herpes simplex virus type 1 (HSV-1) (strain 17i); experiment: plaque-reduction assay, HSV-1 in Vero cells; assay type: cell-based; conditions: Human alphaherpesvirus 1, 2 or 3 days
Method: as §1, §2

[3] = test system: complementary RNA sequences; assay type: binding; conditions: for Tm: pH 7; for ΔTm/mod: pH 7.0

CCOP(=O)(CC[C@H]1O[C@@H](n2cc(C)c(=O)[nH]c2=O)C[C@@H]1OC(=O)c1ccccc1)C[C@H]1C[C@H](n2cc(C)c(=O)[nH]c2=O)O[C@@H]1CO[Si](c1ccccc1)(c1ccccc1)C(C)(C)C (stereo partly drawn) [Compound 13]
IC50 [1]: 1 to 10 µM
IC50 [2]: 5 to 50 µM

CCOP(=O)(CC[C@H]1O[C@@H](n2cc(C)c(=O)[nH]c2=O)C[C@@H]1O)C[C@H]1C[C@H](n2cc(C)c(=O)[nH]c2=O)O[C@@H]1CO[Si](c1ccccc1)(c1ccccc1)C(C)(C)C (stereo partly drawn) [Compound 14]
IC50 [1]: > 200 µM
IC50 [2]: 20 to 200 µM

CCOP(=O)(CC[C@H]1O[C@@H](n2cc(C)c(=O)[nH]c2=O)C[C@@H]1OC(=O)c1ccccc1)C[C@H]1C[C@H](n2cc(C)c(=O)[nH]c2=O)O[C@@H]1CO (stereo partly drawn) [Compound 15]
IC50 [1]: > 2 µM
IC50 [2]: > 5 µM

Example 87: TTT T*TC TCT CTC TCT, T*T unit derived from Compound 81 (hydrolysed) (TTTTTCTCTCTCTCT; T*T modified dimer unit from Compound 81 (hydrolysed), chemistry not fully specified)
Tm [3]: 45.7 °C
ΔTm/mod [3]: -2.8 °C

Example 88: TTT T*TC TCT CTC TCT, T*T unit derived from Compound 81 (TTTTTCTCTCTCTCT; one T*T dimer with modified linkage from Compound 81, further chemistry not given here)
Tm [3]: 46.8 °C
ΔTm/mod [3]: -2.2 °C

Example 89: TTT T*TC TCT CTC TCT, T*T unit derived from Compound 81A (TTTTTCTCTCTCTCT; one T*T dimer with modified linkage from Compound 81A, further chemistry not given here)
Tm [3]: 45.7 °C
ΔTm/mod [3]: -3.3 °C

Example 90: TTT T*TC TCT CTC TCT, T*T unit derived from Compound 81B (TTTTTCTCTCTCTCT; one T*T dimer with modified linkage from Compound 81B, further chemistry not given here)
Tm [3]: 47.2 °C
ΔTm/mod [3]: -1.3 °C

Example 95: CTC GTA CT*T T*TC CGG TCC, T*T units derived from Compound 81 (hydrolysed) (CTCGTACTTTTCCGGTCC; two T*T dimers with modified linkage from hydrolysed Compound 81, further chemistry not given here)
Tm [3]: 58.2 °C
ΔTm/mod [3]: -1.6 °C

Example 96: CTC GTA CT*T T*TC CGG TCC, T*T units derived from Compound 81 (CTCGTACTTTTCCGGTCC; T*T modified units from Compound 81, chemistry not fully specified)
Tm [3]: 58.5 °C
ΔTm/mod [3]: -1.5 °C

Example 97: CTC GTA CT*T T*TC CGG TCC, T*T units derived from Compound 81A (CTCGTACTTTTCCGGTCC; T*T modified units from Compound 81A, chemistry not fully specified)
Tm [3]: 57.9 °C
ΔTm/mod [3]: -1.8 °C

Example 98: CTC GTA CT*T T*TC CGG TCC, T*T units derived from Compound 81B (CTCGTACTTTTCCGGTCC; T*T modified units from Compound 81B, chemistry not fully specified)
Tm [3]: 58.8 °C
ΔTm/mod [3]: -1.3 °C

Example 99: GCG T*TT *TT*T T*TT *TGC G, T*T indicating a unit derived from Compound 81 (hydrolysed) (GCGTTTTTTTTTTGCG; several T*T modified linkages from hydrolysed Compound 81, further chemistry not given here)
Tm [3]: 39.6 °C
ΔTm/mod [3]: -1.8 °C
